Earlier results on three compounds are cited in US20200069758A1, “COMPOSITION FOR USE IN THE PREVENTIVE AND/OR CURATIVE TREATMENT OF NON-ALCOHOLIC FATTY LIVER DISEASE” (NORMAPHAR SA, priority 2018, published 2020).

The conditions of this data set: background art statement; for complications / mortality on administration: long-term or high-dose administration.

Take `CN(C)C(=N)N=C(N)N` [metformin]: the “reduction of non-alcoholic fatty liver disease (simple fatty liver disease, NASH)” value is on record as “failed to significantly reduce”.
For the compound `CCc1ccc(CCOc2ccc(CC3SC(=O)NC3=O)cc2)nc1` (stereo not shown) [pioglitazone], the “complications / mortality on administration” value was “heart failure, osteoporosis and weight gain”.
Turning to Vitamin E, the “reduction of non-alcoholic fatty liver disease (simple fatty liver disease, NASH)” value was “reductions were observed in the inflammation and non-alcoholic fatty liver disease”; the “complications / mortality on administration” value is “increases all-cause mortality”.
